According to paper PMC7477610 (Travel Medicine and Infectious Disease, 2020):
Values joined by “and” are separate entries in the source; they are usually repeats but may differ in a detail not shown here. Equal values may be shown once. Read-outs that look alike come from different tables or passages of the source.

Assays:
SARS-CoV-1 [1] = details: mouse; cited from earlier work
SARS-CoV-1 [2] = details: read-out: EC50 against SARS-CoV-1; cited from earlier work
[3] = human, uptake of 612 mg, extrapolated from 0.07% of dose in rat lung
dengue virus type 2 = details: cited from earlier work
[4] = can go up; cited from earlier work
[5] = cited from earlier work
[6] = tested on: SARS-CoV-2 (clinically isolated strain IHUMI-3); type: cell-based; details: for Selectivity index (SI), ratio CC50/EC50: Vero E6 cells
Cytotoxicity assay = type: cell-based; details: African green monkey, Vero E6 cells
[7] = cited from earlier work; remark: listed apart in the source
SARS-CoV-2 [8] = details: read-out: EC50 against SARS-CoV-2; Vero E6 cells, MOI of 0.2; cited from earlier work
[9] = at 6 h; cited from earlier work
SARS-CoV-2 [10] = details: 10 μM, Vero E6 cells infected by SARS-CoV-2; cited from earlier work
[11] = cited from earlier work; remark: listed apart in the source
Ebola virus [12] = details: read-out: EC50 against Ebola virus; cited from earlier work
Ebola virus [13] = details: mouse, in vivo; cited from earlier work
SARS-CoV-2 [14] = details: read-out: EC50 against SARS-CoV-2; in vitro; cited from earlier work
feline coronavirus = details: read-out: EC50 against feline coronavirus; cited from earlier work
[15] = amodiaquine given at 612 mg day
[16] = rats, single oral dose of 2 mg (10 mg/kg)

Which results are given for `CCN(CC)Cc1cc(Nc2ccnc3cc(Cl)ccc23)ccc1O` [Amodiaquine]?
In vivo activity on SARS-CoV-1 (SARS-CoV-1 [1]): inactive; EC50 (SARS-CoV-1 [2]): 2.5 µM; Amount that would be found in lungs [3]: 428 µg; EC50 (dengue virus type 2; read-out: EC50, dengue virus type 2 replication): 1.08 µM; EC90 (dengue virus type 2; read-out: EC90, dengue virus type 2 replication): 2.69 µM

Which “In vivo activity on SARS-CoV-1” value (SARS-CoV-1 [1]) does the source give for `CCN(CC)CCCC(C)Nc1ccnc2cc(Cl)ccc12` (stereo not shown) [Chloroquine] here?
Its value is “inactive”.

What about the EC50 (SARS-CoV-1 [2]) of the same molecule?
The EC50 was 2.5 µM.

And the “Concentration in the lung” value [4]?
Its value is “up to 280 mg/kg”.

And the Adverse events [5]?
Its Adverse events is 56%.

What about the “Selectivity index (SI), ratio CC50/EC50” value [6] of the same molecule?
The value was over 47.

And the CC50 at 48 h (Cytotoxicity assay)?
Its CC50 at 48 h is over 100 µM.

And the Plasma concentration ([7]; chloroquine 100 mg day, prophylaxis of malaria)?
The Plasma concentration was 0.01–0.4 mg/l and 0.03–1.25 μM.

And the EC50 (SARS-CoV-2 [8])?
The EC50 was 7.1 µM.

For `CCNCc1cc(Nc2ccnc3cc(Cl)ccc23)ccc1O` [Desethylamodiaquine], which CC50 at 48 h (Cytotoxicity assay) is on record?
Its CC50 at 48 h is 86.1 ± 10.5 µM.

What about the “Plasma concentration of desethylamodiaquine” value [7, 15] of the same molecule?
Its value is 753 ng/ml and around 1.9 μM.

And the t1/2 [7, 15]?
Its t1/2 is 8.9 days.

For `C[C@H]1[C@@H](O)O[C@@H]2O[C@@]3(C)CC[C@H]4[C@H](C)CC[C@@H]1[C@@]24OO3` [Dihydroartemisinin], which “Selectivity index (SI), ratio CC50/EC50” value [6] is on record?
The value was 3.

What about the CC50 at 48 h (Cytotoxicity assay) of the same molecule?
Its CC50 at 48 h is 58.9 ± 7.4 µM.

With `CCN(CCO)CCCC(C)Nc1ccnc2cc(Cl)ccc12` (stereo not shown) [Hydroxychloroquine] as the molecule, how does the Blood concentration [9] read?
The Blood concentration was “around 0.3 μM”.

And the Lung concentration [9]?
The Lung concentration was 7.8 µM.

What about the CC50 at 48 h (Cytotoxicity assay) of the same molecule?
Its CC50 at 48 h is 20.4 ± 1.4 µM.

And the Cmax ([7]; oral uptake of 400 mg)?
Its Cmax is 1220 nM.

What about the EC50 (SARS-CoV-2 [8]) of the same molecule?
Its EC50 is 17.3 µM.

What does the source list for `CCCCN(CCCC)CC(O)c1cc(Cl)cc2c1-c1ccc(Cl)cc1/C2=C/c1ccc(Cl)cc1` (stereo not shown) [Lumefantrine]?
Selectivity index (SI), ratio CC50/EC50 [6]: 4; CC50 at 48 h (Cytotoxicity assay): 87.7 ± 11.9 µM; Cmax ([7]; single oral dose 480 mg): 1100 nM

What does the source list for `OC(c1cc(C(F)(F)F)nc2c(C(F)(F)F)cccc12)C1CCCCN1` (stereo not shown) [Mefloquine]?
Inhibition of cytopathic effect (SARS-CoV-2 [10]): inhibited completely; CC50 at 48 h (Cytotoxicity assay): 14.4 ± 2.1 µM

For `Clc1ccc2c(N3CCN(CCCN4CCN(c5ccnc6cc(Cl)ccc56)CC4)CC3)ccnc2c1` [Piperaquine], which “Selectivity index (SI), ratio CC50/EC50” value [6] is on record?
Its value is 2.

And the CC50 at 48 h (Cytotoxicity assay)?
Its CC50 at 48 h is 55 ± 4.8 µM.

For `COc1ccc2nc3cc(Cl)ccc3c(Nc3cc(CN4CCCC4)c(O)c(CN4CCCC4)c3)c2n1` [Pyronaridine], which “Blood Cmax” value [11, 16] is on record?
Its value is 223 ng/mL.

And the “Lung Cmax” value [11, 16]?
Its value is 36.4 µg/g.

What about the “Lung Cmax relative to blood Cmax (more concentrated)” value [11, 16] of the same molecule?
The value was 165.

And the EC50 (Ebola virus [12])?
Its EC50 is 1.14 µM.

And the Adverse events [5]?
Its Adverse events is “around 38%”.

And the “Selectivity index (SI), ratio CC50/EC50” value [6]?
Its value is 22.

What about the “Protection against Ebola virus infection” value (Ebola virus [13]) of the same molecule?
Its value is “protected mice”.

What about the CC50 at 48 h (Cytotoxicity assay) of the same molecule?
The CC50 at 48 h was 15.9 ± 1.6 µM.

And the t1/2 ([7]; 720 mg day, human)?
The t1/2 was 33.5 days.

What about the Plasma concentration ([7]; 720 mg day, human, listed as Pyronaridine tetraphosphate) of the same molecule?
Its Plasma concentration is 271 ng/ml and around 0.3 μM.

Which Concentration lung/blood ratio ([11]; rat, intravenous dose of 10 mg/kg) does the source give for `C=C[C@H]1C[N@@]2CC[C@H]1C[C@H]2[C@H](O)c1ccnc2ccc(OC)cc12` [Quinine] here?
Its Concentration lung/blood ratio is 246.

And the CC50 at 48 h (Cytotoxicity assay)?
The CC50 at 48 h was over 100 µM.

What about the “Blood Cmax” value ([7]; 600 mg single oral dose of quinine sulphate) of the same molecule?
Its value is “around 3.5 mg/l”.

And the Cmax ([7]; read-out: Blood Cmax, 600 mg single oral dose of quinine sulphate)?
The Cmax was about 8500 nM.

With `C[C@H]1c2cccc(O)c2C(=O)C2=C(O)[C@]3(O)C(=O)C(C(N)=O)=C(O)[C@@H](N(C)C)[C@@H]3[C@@H](O)[C@@H]21` [doxycycline] as the molecule, how does the EC50 (SARS-CoV-2 [14]) read?
The EC50 was 5.6 µM.

What does the source list for Ferroquine?
EC50 (feline coronavirus): 2.9 µM; EC50 (SARS-CoV-1 [2]): 1.4 µM; EC90 ([6]; read-out: 90% effective concentration (EC90) against SARS-CoV-2): 2.4 ± 0.9 µM; EC50 ([6]; read-out: Median effective concentration (EC50) against SARS-CoV-2): 1.5 ± 0.3 µM; Mean Cmax (maximum blood concentration) ([7]; oral uptake of 800 mg): 155 ng/mL; t1/2 (elimination half-life) ([7]; oral uptake of 800 mg): 10.9 days; Cmax ([7]; read-out: Mean Cmax (maximum blood concentration), oral uptake of 800 mg): ~600 nM
